Results: patent US9932646B2, “Detection and use of antiviral resistance mutations” (ABL SA, priority 2006, dated 2018)
“Also recorded” adds a separate entry of the source. Counter-ions that a name gives are not always drawn.

Experiments:
[1] = ALT in patients during antiviral therapy; format: in vivo, human; conditions: Patient G, ADV therapy
HBV [2] = assay: Clinical response / resistance of HBV patients to nucleoside or nucleotide analog treatment; format: in vivo, human
Excerpt: The present invention is predicated in part on the identification and isolation of nucleoside or nucleotide analog-resistant variants of HBV following treatment of patients with either ADV or LMV or ETV or more particularly ADV and LMV or TFV and LMV, or ETV and optionally one or more other nucleoside analogs or nucleotide analogs or other anti-HBV agents such as TFV, LdT, or FTC. […] Reference herein to “decreased” or “reduced” in relation to sensitivity to ADV and/or LMV and/or FTC and/or TFV and/or ETV includes and encompasses a complete or substantial resistance to the nucleoside or nucleotide analog or other anti-HBV agents as well as partial resistance and includes a replication rate or replication efficiency which is more than a wild-type in the presence of a nucleoside or nucleotide analog or other anti-HBV agents. In one aspect, this is conveniently measured by an increase in viral load during treatment, or alternatively, there is no substantial decrease in HBV DNA viral load from pre-treatment HBV DNA levels during treatment (i.e., non-response to treatment).
Hepatitis B surface antigen (HBsAg), hepatitis B e antigen (HBeAg), anti-HBe and hepatitis B core antigen (HBcAg) specific IgG and IgM were measured using commercially available immunoassays (Abbott Laboratories, North Chicago, Ill., USA). Hepatitis B viral DNA levels were measured using a capture hybridization assay according to the manufacturer's directions (Digene Hybrid Capture II, Digene Diagnostics Inc., Beltsville, Md.). The manufacturers stated cut-off for detecting HBV viremia in clinical specimens was 0.7×10^6 copies/ml or 2.5 pg/ml, [Hendricks et al, Am J Clin Pathol 104:537-46, 1995]. HBV DNA levels can also be quantitated using other commercial kits such as Cobas amplification HBV monitor kit (Roche). […]
The specific amplified products were purified using PCR purification columns from MO BIO Laboratories Inc (La Jolla, Calif.) and directly sequenced using Big Dye terminator Cycle sequencing Ready Reaction Kit (Perkin Elmer, Cetus Norwalk, Conn.). […]

HBV [3] = conditions: cited from earlier work
HBV [4] = conditions: cited from earlier work; remark: listed apart in the source
HIV = conditions: cited from earlier work

## CC(C)(C)C(=O)OCOP(=O)(COCCn1cnc2c(N)ncnc21)OCOC(=O)C(C)(C)C [ADV, adefovir dipivoxil]
[1]
  ALT: 467 IU/ml
HBV [2]; human, in vivo
  response to treatment: resistant; also recorded: did not respond
HBV [3]; in vivo
  clinical activity against both wild-type and lamivudine-resistant strains of HBV: demonstrated clinical activity
HBV [3]; phase II studies, 30 mg daily dose, over 12 weeks
  mean decrease in viremia: 4 log10
HBV [4]
  inhibition of HBV replication: potent inhibitor

## C=C1[C@H](CO)[C@@H](O)C[C@@H]1n1cnc2c(=O)[nH]c(N)nc21 [ETV, entecavir]
HBV [2]; Patient H, sequential then combination treatment
  response to treatment: resistant
HBV [2]; Patient J, previously treated with LMV, then ADV, then ETV
  response to treatment: did not respond

## Nc1nc(=O)n([C@@H]2CS[C@H](CO)O2)cc1F [FTC, (−)-β-L-2′-3′-dideoxy-5-fluoro-3′-thiacydidine]
HBV [4]
  activity against HBV: activity
HIV
  activity against HIV: activity

## Nc1ncnc2c1ncn2C1CC(O)C(CO)O1 [LdA, beta-L-2′-deoxyadenosine]
HBV [4]
  activity against HBV: activity

## Nc1ccn([C@@H]2C[C@@H](O)[C@H](CO)O2)c(=O)n1 [LdC, beta-L-2′-deoxycytidine]
HBV [4]
  activity against HBV: activity

## Cc1cn([C@@H]2C[C@@H](O)[C@H](CO)O2)c(=O)[nH]c1=O [LdT, beta-Lthymidine]
HBV [4]
  activity against HBV: activity

## CC(C)OC(=O)OCOP(=O)(CO[C@H](C)Cn1cnc2c(N)ncnc21)OCOC(=O)OC(C)C [TFV, tenofovir disoproxil fumarate]
HBV [4]
  activity against HBV: antiviral activity
  inhibition of HBV replication: potent inhibitor
HIV
  activity against HIV: antiviral activity
